Reference: patent US8420574B2, “Plant growth enhancement with combinations of PESA and herbicides” (Valent BioSciences Corporation, priority 2009, dated 2013)

Columns and labels:
Type in all cases: in vivo
rice cv. Cheniere [1] = assay: Pouch assay, PESA salt and herbicide added to the pouch solution; root and shoot length
Experimental: Alternatively, PESA salt and herbicides may be added separately to the sterile water in the growth pouch.
(§1) Seeds were placed in germination pouches consisting of germination paper hydrated with sterile water that was an insert in a gas-permeable 16×14 cm plastic pouch (CYG Pouch; Mega International, St. Paul, Minn.). In these examples, in pouch solution evaluation, PESA sodium salt or other active ingredients were added to the sterile water in the pouch. The pouches were arranged in a completely randomized block design in growth racks and placed in 19-liter polycarbonate food storage containers (Rubbermaid Commercial Products, Winchester, Va.). The sealed containers were held in an upright growth cabinet maintained at 25 C with a 12 hour light: 12 hour dark photoperiod. After 6 days, the containers were removed from the growth cabinet, and the lengths of the roots and shoot were measured.

cotton = assay: Pouch assay; root and shoot length of cotton; settings: 0 ppm PESA salt; for Shoot Length: untreated 4.7; for Root Length: untreated 7.7
Experimental: as §1

rice cv. Nipponbare = assay: Hydroponic assay; total root length and shoot length; settings: for Shoot Length / Total Root Length: 0 ppm PESA salt
Experimental: Where hydroponically-grown rice was used in studies, the seeds were pre-incubated in water at 30 C for 2 days to stimulate germination. Three seeds were placed on a float and cultivated hydroponically in a test tube (25 mm×200 mm), which contained 50 ml of Kimura B nutrient solution at ⅛th strength supplemented with herbicides and PESA sodium salt. The exposure of the roots to the light was prevented by wrapping the tubes with aluminum foil. The rice seedlings were incubated in a growth cabinet at 25 C under continuous light for 14 days, and the total root length and shoot length were measured. Total root length (cm) was the root length/plant determined following scanning with WinRhizo software (Regent Instruments INC, Toronto, Canada).

rice cv. Cheniere [2] = assay: Emergence of seed-treated rice seeded onto soil previously treated with herbicide; settings: no seed treatment (Control), untreated 90
Text: Seed was sieved with a screen of mesh size appropriate to remove broken seeds and small trash. Cracked or otherwise damaged seeds were removed. The seed was well mixed, and 50 g samples were weighed into small plastic trays. […] A fungicide (Maxim XL; Syngenta Agricultural Products, Greensboro, N.C.), a polymeric binder (CF-Clear; Becker-Underwood, Ames, Iowa), and a colorant (Color Coat Red; Becker-Underwood, Ames, Iowa) were also included in the slurry at label rates. A small aliquot of this slurry was applied to the seed using the Hege 11 coater (Wintersteiger, Salt Lake City, Utah) with a six-inch bowl at a slurry rate of 30 ounces per 100 lbs of seed. The slurry was deposited drop-wise on the spinning disk atomizer using a syringe.
Rice cv. […] It was then seeded onto soil which was previously sprayed with the pendimethalin herbicide Prowl H2O® (BASF Agricultural Products, Research Triangle Park, N.C.).
After seed treatment, rice was seeded into soil previously treated with the dithiopyr herbicide Dimension®.
Rice seed treated with PESA was tested for its ability to protect rice from the herbicide Roundup WeatherMax® (glyphosate). After seed treatment, rice was seeded into soil previously treated with the Roundup WeatherMax®.

[3] = 10 ppm dithiopyr, treatment none (Control), 30 ppm PESA salt, 10 ppm GA3 or both, untreated 3.9
[4] = 10 ppm dithiopyr, treatment none (Control), 30 ppm PESA salt, 10 ppm GA3 or both, untreated 9.5
[5] = 50 ppm pendimethalin, treatment none (Control), 30 ppm PESA salt, 10 ppm GA3 or both, untreated 3.9
[6] = 50 ppm pendimethalin, treatment none (Control), 30 ppm PESA salt, 10 ppm GA3 or both, untreated 9.7
[7] = pendimethalin (Table 4, 50 ppm)

## COc1nc(C)nc(NC(=O)NS(=O)(=O)c2ccccc2Cl)n1 [Chlorsulfuron, chlorsulfuron, reference compound]
Rice cv. Cheniere [1]; 10 ppm chlorsulfuron, 0 ppm PESA salt, untreated 4.8
  Shoot Length: 0.9 cm
Rice cv. Cheniere [1]; 10 ppm chlorsulfuron, 0 ppm PESA salt, untreated 11.6
  Root Length: 0.6 cm
Rice cv. Cheniere [1]; 100 ppm chlorsulfuron, 0 ppm PESA salt, untreated 4.8
  Shoot Length: 0.7 cm
Rice cv. Cheniere [1]; 100 ppm chlorsulfuron, 0 ppm PESA salt, untreated 11.6
  Root Length: 0.3 cm
cotton; 1 ppm chlorsulfuron
  Shoot Length: 2.3 cm
  Root Length: 2.1 cm
cotton; 10 ppm chlorsulfuron
  Shoot Length: 1.5 cm
  Root Length: 1.8 cm
cotton; 100 ppm chlorsulfuron
  Shoot Length: 1.7 cm
  Root Length: 1.9 cm

## C#CCOC(=O)[C@@H](C)Oc1ccc(Oc2ncc(Cl)cc2F)cc1 [Clodinafop-propargyl, clodinafop-propargyl, reference compound]
Rice cv. Nipponbare; 0.3 ppm clodinafop-propargyl, untreated 10.6
  Shoot Length: 10.2 cm
Rice cv. Nipponbare; 0.3 ppm clodinafop-propargyl, untreated 52.1
  Total Root Length: 45.3 cm
Rice cv. Nipponbare; 1 ppm clodinafop-propargyl, untreated 10.6
  Shoot Length: 10.9 cm
Rice cv. Nipponbare; 1 ppm clodinafop-propargyl, untreated 52.1
  Total Root Length: 11.5 cm
Rice cv. Nipponbare; 3 ppm clodinafop-propargyl
  root length reduced by: 91%
Rice cv. Nipponbare; 3 ppm clodinafop-propargyl, untreated 10.6
  Shoot Length: 7.5 cm
Rice cv. Nipponbare; 3 ppm clodinafop-propargyl, untreated 52.1
  Total Root Length: 4.7 cm

## COc1c(Cl)ccc(Cl)c1C(=O)O [Dicamba, dicamba, reference compound]
Rice cv. Nipponbare; 0.01 ppm dicamba, untreated 11.4
  Shoot Length: 10.6 cm
Rice cv. Nipponbare; 0.01 ppm dicamba, untreated 44.9
  Total Root Length: 21.3 cm
Rice cv. Nipponbare; 0.1 ppm dicamba
  root length reduced by: 87%
  shoot length reduced by: 61%
Rice cv. Nipponbare; 0.1 ppm dicamba, untreated 11.4
  Shoot Length: 4.5 cm
Rice cv. Nipponbare; 0.1 ppm dicamba, untreated 44.9
  Total Root Length: 6.0 cm
Rice cv. Nipponbare; 1 ppm dicamba, untreated 11.4
  Shoot Length: 3.8 cm
Rice cv. Nipponbare; 1 ppm dicamba, untreated 44.9
  Total Root Length: 0.0 cm

## CSC(=O)c1c(C(F)F)nc(C(F)(F)F)c(C(=O)SC)c1CC(C)C [Dithiopyr, dithiopyr, reference compound]
Rice cv. Cheniere [1]; 1 ppm dithiopyr, 0 ppm PESA salt, untreated 4.0
  Shoot Length: 4.3 cm
Rice cv. Cheniere [1]; 1 ppm dithiopyr, 0 ppm PESA salt, untreated 9.5
  Root Length: 10.0 cm
Rice cv. Cheniere [1]; 10 ppm dithiopyr
  root length reduced by: 30%
Rice cv. Cheniere [1]; 10 ppm dithiopyr, 0 ppm PESA salt, untreated 4.0
  Shoot Length: 3.5 cm
Rice cv. Cheniere [1]; 10 ppm dithiopyr, 0 ppm PESA salt, untreated 9.5
  Root Length: 6.7 cm
Rice cv. Cheniere [1]; [3]
  Shoot Length: 3.0 cm
Rice cv. Cheniere [1]; [4]
  Root Length: 4.1 cm
Rice cv. Cheniere [1]; 100 ppm dithiopyr, 0 ppm PESA salt, untreated 4.0
  Shoot Length: 1.2 cm
Rice cv. Cheniere [1]; 100 ppm dithiopyr, 0 ppm PESA salt, untreated 9.5
  Root Length: 0.4 cm

## C#CCN1C(=O)COc2cc(F)c(N3C(=O)C4=C(CCCC4)C3=O)cc21 [Flumioxazin, flumioxazin, reference compound]
Rice cv. Nipponbare; 0.1 ppm flumioxazin, untreated 10.6
  Shoot Length: 10.7 cm
Rice cv. Nipponbare; 0.1 ppm flumioxazin, untreated 52.1
  Total Root Length: 41.5 cm
Rice cv. Nipponbare; 0.3 ppm flumioxazin, untreated 10.6
  Shoot Length: 11.0 cm
Rice cv. Nipponbare; 0.3 ppm flumioxazin, untreated 52.1
  Total Root Length: 64.1 cm
Rice cv. Nipponbare; 1 ppm flumioxazin
  root length reduced by: 28%
  shoot length reduced by: 64%
Rice cv. Nipponbare; 1 ppm flumioxazin, untreated 10.6
  Shoot Length: 3.8 cm
Rice cv. Nipponbare; 1 ppm flumioxazin, untreated 52.1
  Total Root Length: 14.5 cm
Rice cv. Nipponbare; 3 ppm flumioxazin, untreated 10.6
  Shoot Length: 5.9 cm
Rice cv. Nipponbare; 3 ppm flumioxazin, untreated 52.1
  Total Root Length: 15.7 cm

## C=C1C[C@]23C[C@@]1(O)CC[C@H]2[C@@]12C=C[C@H](O)[C@@](C)(C(=O)O1)[C@H]2[C@@H]3C(=O)O [GA3, gibberellic acid, reference compound]
Rice cv. Cheniere [1]; 0 ppm pendimethalin, treatment 30 ppm PESA salt, 10 ppm GA3 or both, untreated 3.9
  Shoot Length: 7.7 cm
Rice cv. Cheniere [1]; 0 ppm pendimethalin, treatment 30 ppm PESA salt, 10 ppm GA3 or both, untreated 9.7
  Root Length: 10.8 cm
Rice cv. Cheniere [1]; [3]
  Shoot Length: 5.6 cm
Rice cv. Cheniere [1]; [4]
  Root Length: 4.7 cm
Rice cv. Cheniere [1]; [5]
  Shoot Length: 1.5 cm
Rice cv. Cheniere [1]; [6]
  Root Length: 2.7 cm
Rice cv. Cheniere [1]; in the growth medium with pendimethalin (Table 4)
  protection of roots and shoots from pendimethalin: only marginally effective at protecting the roots and shoots from pendimethalin
Rice cv. Cheniere [1]; no dithiopyr (Control), treatment 30 ppm PESA salt, 10 ppm GA3 or both, untreated 3.9
  Shoot Length: 7.0 cm
Rice cv. Cheniere [1]; no dithiopyr (Control), treatment 30 ppm PESA salt, 10 ppm GA3 or both, untreated 9.5
  Root Length: 10.7 cm

## O=C(O)CNCP(=O)(O)O [Glyphosate, glyphosate, reference compound]
Rice cv. Cheniere [2]; glyphosate 23 μg/cm2 (Roundup)
  Percent Emergence at 9 days after planting: 72%
Rice cv. Cheniere [2]; glyphosate 90 μg/cm2 (Roundup)
  Percent Emergence at 9 days after planting: 12%

## COc1cc(OC)nc(NC(=O)NS(=O)(=O)c2c(Cl)nc3ccccn23)n1 [Imazosulfuron, imazosulfuron, reference compound]
Rice cv. Nipponbare; 0.01 ppm imazosulfuron, untreated 11.4
  Shoot Length: 12.6 cm
Rice cv. Nipponbare; 0.01 ppm imazosulfuron, untreated 44.9
  Total Root Length: 41.4 cm
Rice cv. Nipponbare; 0.1 ppm imazosulfuron
  root length reduced by: 49%
Rice cv. Nipponbare; 0.1 ppm imazosulfuron, untreated 11.4
  Shoot Length: 8.6 cm
Rice cv. Nipponbare; 0.1 ppm imazosulfuron, untreated 44.9
  Total Root Length: 23.1 cm
Rice cv. Nipponbare; 1 ppm imazosulfuron
  shoot length reduced by: 86%
Rice cv. Nipponbare; 1 ppm imazosulfuron, untreated 11.4
  Shoot Length: 1.6 cm
Rice cv. Nipponbare; 1 ppm imazosulfuron, untreated 44.9
  Total Root Length: 4.9 cm

## CCc1cccc(C)c1N(C(=O)CCl)C(C)COC (stereo not drawn) [Metolachlor, metolachlor, reference compound]
Rice cv. Cheniere [1]; 1 ppm metolachlor, 0 ppm PESA salt, untreated 3.7
  Shoot Length: 3.6 cm
Rice cv. Cheniere [1]; 1 ppm metolachlor, 0 ppm PESA salt, untreated 9.3
  Root Length: 8.2 cm
Rice cv. Cheniere [1]; 10 ppm metolachlor
  decrease in root length: 60%
Rice cv. Cheniere [1]; 10 ppm metolachlor, 0 ppm PESA salt, untreated 3.7
  Shoot Length: 0.9 cm
Rice cv. Cheniere [1]; 10 ppm metolachlor, 0 ppm PESA salt, untreated 9.3
  Root Length: 3.7 cm
Rice cv. Cheniere [1]; 100 ppm metolachlor, 0 ppm PESA salt, untreated 3.7
  Shoot Length: 0.6 cm
Rice cv. Cheniere [1]; 100 ppm metolachlor, 0 ppm PESA salt, untreated 9.3
  Root Length: 1.6 cm

## CCC(CC)Nc1c([N+](=O)[O-])cc(C)c(C)c1[N+](=O)[O-] [Pendimethalin, pendimethalin, reference compound]
Rice cv. Cheniere [1]; 10 ppm pendimethalin, 0 ppm PESA salt, untreated 3.4
  Shoot Length: 3.4 cm
Rice cv. Cheniere [1]; 10 ppm pendimethalin, 0 ppm PESA salt, untreated 8.5
  Root Length: 8.3 cm
Rice cv. Cheniere [1]; [5]
  Shoot Length: 1.3 cm
Rice cv. Cheniere [1]; [6]
  Root Length: 2.9 cm
Rice cv. Cheniere [1]; 100 ppm pendimethalin
  root length reduced by: 70%
Rice cv. Cheniere [1]; 100 ppm pendimethalin, 0 ppm PESA salt, untreated 3.4
  Shoot Length: 1.0 cm
Rice cv. Cheniere [1]; 100 ppm pendimethalin, 0 ppm PESA salt, untreated 8.5
  Root Length: 2.5 cm
Rice cv. Cheniere [1]; 500 ppm pendimethalin, 0 ppm PESA salt, untreated 3.4
  Shoot Length: 0.5 cm
Rice cv. Cheniere [1]; 500 ppm pendimethalin, 0 ppm PESA salt, untreated 8.5
  Root Length: 0.5 cm
Rice cv. Cheniere [1]; [7]
  root length decreased by: 75%
  shoot length decreased by: 67%
